PubChem BioAssay AID268 (DTP/NCI, 2004)
Several values for one entry are separate records, joined by “and”; a condition that tells them apart may be missing. Equal values may be shown once.

Tested on: CD2F1 mice, P1798 lymphosarcoma sc, tumor weight T/C
Test: NCI In Vivo Anticancer Drug Screen. Data for tumor model P1798 Lymphosarcoma (subcutaneous) in CD2F1 (CDF1) mice
Settings: endpoint: mean tumor weight, higher = larger tumour
Procedure: The antitumor activity of compounds was measured in mice bearing transplantable tumors. Survival or tumor size were measured and the results are expressed as the measurement made in the treated group (T) divided by the measurement made in the vehicle treated control group (C). The tumor model used in this assay is P1798 Lymphosarcoma (subcutaneous) in CD2F1 (CDF1) mice

[1] = dose: 50.0 mg/kg/injection, schedule: Q01DX010 (ip), vehicle: saline
[2] = dose: 100.0 mg/kg/injection, schedule: Q01DX010 (ip), vehicle: saline
[3] = dose: 200.0 mg/kg/injection, schedule: Q01DX010 (ip), vehicle: saline
[4] = dose: 400.0 mg/kg/injection, schedule: Q01DX010 (ip), vehicle: saline
[5] = dose: 15.0 mg/kg/injection, schedule: Q01DX010 (ip), vehicle: saline
[6] = dose: 30.0 mg/kg/injection, schedule: Q01DX010 (ip), vehicle: saline
[7] = dose: 10.0 mg/kg/injection, schedule: Q01DX010 (ip), vehicle: saline
[8] = dose: 20.0 mg/kg/injection, schedule: Q01DX010 (ip), vehicle: saline
[9] = dose: 40.0 mg/kg/injection, schedule: Q01DX010 (ip), vehicle: saline
[10] = dose: 80.0 mg/kg/injection, schedule: Q01DX010 (ip), vehicle: saline

In the case of `Nc1c(N=Nc2ccc([N+](=O)[O-])cc2)c(S(=O)(=O)O)cc2cc(S(=O)(=O)O)c(N=Nc3ccc(Sc4ccc(N=Nc5ccc(O)cc5)cc4)cc3)c(O)c12` (tested in a mixture with another compound), the T/C [1] is reported as 119 % of control, the T/C [2] is reported as 76 % of control and the T/C [3] is reported as 31 % of control. For the same compound, the T/C [4] was 20 % of control.

In the case of `O=C(NCCCCCCNC(=O)OCc1ccccc1)OCc1ccccc1`, the T/C [1] is reported as 102 % of control, the T/C [2] is reported as 119 % of control and the T/C [3] is reported as 94 % of control. The T/C [4] was 123 % of control.

With `O=C(NCCCCC(NC(=O)c1ccccc1)C(=O)NCCCCCCCCCCNC(=O)C(CCCCNC(=O)c1ccccc1)NC(=O)c1ccccc1)c1ccccc1` (stereo not drawn) the T/C (dose: 12.5 mg/kg/injection, schedule: Q01DX010 (ip), vehicle: saline) was 85 % of control, the T/C (dose: 25.0 mg/kg/injection, schedule: Q01DX010 (ip), vehicle: saline) was 93 % of control and the T/C [1] was 86 % of control. For the same compound, the T/C [2] was 90 % of control.

`CSCS(=O)C[C@H](CO)NC(=O)/C=C/c1c(C)[nH]c(=O)[nH]c1=O` (stereo partly drawn) was tested, and the T/C (dose: 0.13 mg/kg/injection, schedule: Q01DX010 (ip), vehicle: saline) was 94 % of control, the T/C (dose: 0.25 mg/kg/injection, schedule: Q01DX010 (ip), vehicle: saline) was 99 % of control and the T/C (dose: 0.5 mg/kg/injection, schedule: Q01DX010 (ip), vehicle: saline) was 15 % of control.

`N#CCSc1ncnc2nc[nH]c12` was tested, and the T/C (dose: 7.5 mg/kg/injection, schedule: Q01DX010 (ip), vehicle: saline) was 87 % of control, the T/C [5] was 56 % of control and the T/C [6] was 97 % of control and 109 % of control. The T/C (dose: 60.0 mg/kg/injection, schedule: Q01DX010 (ip), vehicle: saline) was 97 % of control and 108 % of control.

In the case of `Nc1ncnc2c1ncn2C1OC(COCc2ccccc2)C(OCc2ccccc2)C1OCc1ccccc1` (stereo not drawn), the T/C [7] is reported as 107 % of control and 115 % of control, the T/C [8] is reported as 92 % of control and 109 % of control and the T/C [9] is reported as 114 % of control and 89 % of control. For the same compound, the T/C [10] was 93 % of control and 104 % of control.

For `OCC1OC(n2cnc3c(=S)nc[nH]c32)C(O)C1O` (stereo not drawn), the T/C [7] was 65 % of control, the T/C [8] was 54 % of control and 57 % of control and the T/C [9] was 57 % of control and 61 % of control. For the same compound, the T/C [10] was 40 % of control and 60 % of control and the T/C (dose: 160.0 mg/kg/injection, schedule: Q01DX010 (ip), vehicle: saline) was 61 % of control.

With `CCC(=O)O[C@H]1CC[C@H]2[C@@H]3CC[C@H]4CC(=O)[C@H](C)C[C@]4(C)[C@H]3CC[C@]12C` the T/C (dose: 15.6 mg/kg/injection, schedule: Q01DX010 (sc), vehicle: steriod suspending solution) was 110 % of control, the T/C (dose: 31.3 mg/kg/injection, schedule: Q01DX010 (sc), vehicle: steriod suspending solution) was 120 % of control and the T/C (dose: 62.5 mg/kg/injection, schedule: Q01DX010 (sc), vehicle: steriod suspending solution) was 112 % of control. For the same compound, the T/C (dose: 125.0 mg/kg/injection, schedule: Q01DX010 (sc), vehicle: steriod suspending solution) was 91 % of control and 77 % of control, the T/C (dose: 250.0 mg/kg/injection, schedule: Q01DX010 (sc), vehicle: steriod suspending solution) was 88 % of control and the T/C (dose: 500.0 mg/kg/injection, schedule: Q01DX010 (sc), vehicle: steriod suspending solution) was 96 % of control. The T/C (dose: 1000.0 mg/kg/injection, schedule: Q01DX010 (sc), vehicle: steriod suspending solution) was 88 % of control.

In the case of `Cn1cnc([N+](=O)[O-])c1Sc1nc(N)nc2nc[nH]c12`, the T/C (dose: 2.5 mg/kg/injection, schedule: Q01DX010 (ip), vehicle: saline) is reported as 69 % of control, the T/C (dose: 5.0 mg/kg/injection, schedule: Q01DX010 (ip), vehicle: saline) is reported as 75 % of control and the T/C [7] is reported as 57 % of control. For the same compound, the T/C [8] was 54 % of control.

`NCC(=O)NCCCCCCNCCCCCCNC(=O)CN` was tested, and the T/C [1] was 82 % of control, the T/C [2] was 113 % of control and the T/C [3] was 89 % of control. The T/C [4] was 73 % of control.

`CN(C)[C@@H]1C(=O)C(C(N)=O)=C(O)[C@@]2(O)C(=O)C3=C(O)c4c(O)cccc4C[C@H]3C[C@@H]12` was tested, and the T/C [5] was 124 % of control and the T/C [6] was 106 % of control.

In the case of `CC(=O)[C@@]1(O)CC[C@H]2[C@@H]3C[C@H](C)C4=CC(=O)C=C[C@]4(C)[C@@]3(F)[C@@H](O)C[C@@]21C`, the T/C (dose: 12.5 mg/kg/injection, schedule: Q01DX005 (sc), vehicle: steriod suspending solution) is reported as 3 % of control, the T/C (dose: 12.5 mg/kg/injection, schedule: Q01DX010 (sc), vehicle: steriod suspending solution) is reported as 18 % of control and 41 % of control and the T/C (dose: 25.0 mg/kg/injection, schedule: Q01DX005 (sc), vehicle: steriod suspending solution) is reported as 3 % of control. The T/C (dose: 25.0 mg/kg/injection, schedule: Q02DX010 (sc), vehicle: steriod suspending solution) was 98 % of control, the T/C (dose: 50.0 mg/kg/injection, schedule: Q01DX005 (sc), vehicle: steriod suspending solution) was 2 % of control and the T/C (dose: 50.0 mg/kg/injection, schedule: Q02DX010 (sc), vehicle: steriod suspending solution) was 93 % of control. For the same compound, the T/C (dose: 100.0 mg/kg/injection, schedule: Q01DX005 (sc), vehicle: steriod suspending solution) was 1 % of control and the T/C (dose: 100.0 mg/kg/injection, schedule: Q02DX010 (sc), vehicle: steriod suspending solution) was 98 % of control.
